From patent US20200339691A1, “PROTEINACEOUS MOLECULES AND USES THEREFOR” (priority 2018, published 2020)
Where a SMILES comes first, the peptide text is derived from it. The star is where a group is joined. Myristoyl = CCCCCCCCCCCCCC(=O)*

Legend:
Assay type in all cases: cell-based, human
Conditions in all cases: 50 μM, 72 hours
H3K9me3 = experiment: Immunofluorescence of H3K9me3 in MDA-MB-231 cells
Method: (§1) 1×10^4 MDA-MB-231 cells were seeded onto coverslips in 12 well plates with DMEM media. Cells were treated with 50 μM P1, P2, P3 or P4 (synthesized in accordance with Example 5) or vehicle (water) for 72 hours. Cells were fixed with 3.7% formaldehyde and permeabilized with 2% Triton-X-100, then probed with primary mouse antibodies to CSV, DMNT1, H3K9me3 or 5-methylcytosine; primary goat antibodies to SNAI1, SETDB1 or ABCB5; or primary rabbit antibodies to PD-L1, EGFR, EHMT2; followed by the corresponding secondary antibody conjugated to anti-mouse Alexa-Fluor 568, anti-goat Alexa-Fluor 633 or anti-rabbit Alexa-Fluor 488. Confocal laser scanning microscopy was used to measure the TFI, TNFI and TCFI as described above. At least 20 individual cells were analyzed per sample.

5-methylcytosine = experiment: Immunofluorescence of 5-methylcytosine in MDA-MB-231 cells
Method: as §1

ABCBS = experiment: Immunofluorescence of ABCBS in MDA-MB-231 cells
Method: as §1

SNAI1 = experiment: Immunofluorescence of SNAI1 in MDA-MB-231 cells
Method: as §1

Structure (SMILES) | expression of H3K9me3 (H3K9me3) | expression of 5-methylcytosine (5-methylcytosine) | expression of ABCBS (ABCBS) | expression of SNAI1 (SNAI1)
CCCCCCCCCCCCCC(=O)N[C@@H](CC(C)C)C(=O)N[C@H](C(=O)N[C@@H](Cc1ccccc1)C(=O)N[C@H](C(=O)N[C@@H](Cc1ccccc1)C(=O)N[C@@H](CCCNC(=N)N)C(=O)N[C@@H](CC(C)C)C(=O)N[C@@H](CCCNC(=N)N)C(=O)N[C@@H](CCCCNC(C)=O)C(=O)NCC(=O)N[C@@H](CCCNC(=N)N)C(=O)N[C@@H](CCSC)C(=O)N[C@@H](CCSC)C(=O)N[C@@H](CC(=O)O)C(=O)N[C@H](C(=O)N[C@@H](CCCCN)C(=O)N[C@@H](CCCCN)C(N)=O)C(C)C)[C@@H](C)CC)[C@@H](C)O [Peptide P3, Myristoyl-LTFIFRLRK(Ac)GRMMDVKK-NH2] (Myristoyl-LTFIFRLRK(Ac)GRMMDVKK-NH2) | strongly inhibited | strongly inhibited | strongly inhibited | uniformly inhibited
CCCCCCCCCCCCCC(=O)N[C@@H](CC(C)C)C(=O)N[C@H](C(=O)N[C@@H](Cc1ccccc1)C(=O)N[C@H](C(=O)N[C@@H](Cc1ccccc1)C(=O)N[C@@H](CCCNC(=N)N)C(=O)N[C@@H](CC(C)C)C(=O)N[C@@H](CCCNC(=N)N)C(=O)N[C@@H](CCC(N)=O)C(=O)NCC(=O)N[C@@H](CCCNC(=N)N)C(=O)N[C@@H](CCSC)C(=O)N[C@@H](CCSC)C(=O)N[C@@H](CC(=O)O)C(=O)N[C@H](C(=O)N[C@@H](CCCCN)C(=O)N[C@@H](CCCCN)C(N)=O)C(C)C)[C@@H](C)CC)[C@@H](C)O [Peptide P2, Myristoyl-LTFIFRLRQGRMMDVKK-NH2] (Myristoyl-LTFIFRLRQGRMMDVKK-NH2) |  |  |  | uniformly inhibited
CCCCCCCCCCCCCC(=O)N[C@@H](CC(C)C)C(=O)N[C@H](C(=O)N[C@@H](Cc1ccccc1)C(=O)N[C@H](C(=O)N[C@@H](Cc1ccccc1)C(=O)N[C@@H](CCCNC(=N)N)C(=O)N[C@@H](CC(C)C)C(=O)N[C@@H](CCCNC(=N)N)C(=O)N[C@@H](CCCCN)C(=O)NCC(=O)N[C@@H](CCCNC(=N)N)C(=O)N[C@@H](CCSC)C(=O)N[C@@H](CCSC)C(=O)N[C@@H](CC(=O)O)C(=O)N[C@H](C(=O)N[C@@H](CCCCN)C(=O)N[C@@H](CCCCN)C(N)=O)C(C)C)[C@@H](C)CC)[C@@H](C)O [Peptide P1, Myristoyl-LTFIFRLRKGRMMDVKK-NH2] (Myristoyl-LTFIFRLRKGRMMDVKK-NH2) |  |  |  | uniformly inhibited
